Measured values as given in patent US11465980B2, “6-membered aza-heterocyclic containing delta-opioid receptor modulating compounds, methods of using and making the same” (Trevena, Inc., priority 2015, dated 2022).
Where two headings read alike, the source gives them in different places.

Assays:
[1] = test system: rat; test: Tactile allodynia produced by nitroglycerin (migraine model, rat); type: in vivo; conditions: route sc, nitroglycerin 10 mg/kg ip, p < 0.05 vs vehicle
[2] = test system: mouse; test: Tactile allodynia produced by nitroglycerin (migraine model, mouse); type: in vivo; conditions: route sc, nitroglycerin 10 mg/kg ip, p < 0.05 vs vehicle; for minimal effective dose: read-out: Active Migraine Doses
Procedure: Compounds were tested for efficacy in rodent models of nitroglycerine induced migraine. In this model both rats and mice can be induced to have a behavioral response consistent with the progression of a migraine attack by the intraperitoneal injection of nitroglycerin. In this test mice or rats (n=8/group) are given an intraperitoneal injection of nitroglycerin at 10 mg/kg. After 90 minutes the animals are subcutaneously dosed with test compound. A measurement of mechanical allodynia will be obtained using the up/down method with seven von Frey monofilaments. There is a specific series used for rat and mouse. Each monofilament is delivered to the hind paw for approximately 1-2 seconds. If there is a response, the next lower force will be delivered. This procedure will be performed until no response was made at the highest force or until four stimuli are administered following the initial response. The 50% paw withdrawal threshold for the hind paw will be calculated using the following formula: [Xth]log=[vFr]log+ky where [vFr] is the force of the last von Frey used, k is the average interval (in log units) between the von Frey monofilaments, and y is a value that depends upon the pattern of withdrawal responses. Testing for tactile sensitivity will be performed and a withdrawal value will be assigned as the tactile sensitivity (expressed in grams of force required to elicit a response) for the injected paw for each animal. Data is presented as the mean grams required to produce a hind paw withdrawal from the von Frey stimulus. […] Compounds found to be effective in this model of migraine at the doses indicated, although other doses may also be active. Other compounds described herein were not necessarily tested, but are expected to be able have some level of efficacy.

[3] = test system: adult male C57 mice; test: Tail suspension test (TST); type: in vivo, mouse; conditions: route sc, p < 0.05 compared to vehicle-treated mice; for minimal effective dose: Mus musculus, read-out: Active TST Dose
Procedure: The experiments were performed using adult male C57 mice (6-10 weeks of age, 20-30 g, Hilltop Lab, PA). The mice were housed in standard rodent cages with stainless steel mesh wire bar lids in groups of 4 with controlled temperature and light cycle (6:00 a.m.-6:00 p.m.). Animals were given free access to food (Harlan Teklad Global 18% protein (Madison, Wis.)) and water during a minimum 2-day habituation period to the laboratory. Animals that were used in the study were handled, housed, and sacrificed (using compressed CO2) in accord with the current NIH guidelines regarding the use and care of laboratory animals, and all applicable local, state, and federal regulations and guidelines. Animals are identified by cage number, and by markings applied to the proximal tip of the tail using a permanent marker. Group sizes (n=8, and therefore 30-50 animals per study) provide reliable estimates of treatment effects, and this species and strain of mouse has been recognized as appropriate for pharmacology studies.
To measure efficacy of the compounds the compounds were tested using a tail suspension test. The tail suspension test is a behavioral test used to evaluate the efficacy of antidepressant drugs in rodents. In the TST, mice (n=8/group) were suspended by the tail with tape approximately 30-50 cm above the lab bench. Mice are positioned such that the base of their tail is perpendicular to the lab bench. Each mouse is given 1 trial that last 6 minutes. The total duration of immobility is calculated as the percentage of time that the mouse is immobile. The duration of immobility is the main parameter measured. This is calculated from the cumulated time during which the animals is absent of initiated movements including passive swaying. When antidepressant drugs are administered, immobility is decreased by a variety of classes of antidepressant drugs. One or more of the compounds show antidepressant activity.

[4] = test system: rat; test: Mechanical allodynia after Freund's Complete Adjuvant, Randall-Selitto (rat); type: in vivo; conditions: route sc, p < 0.05 vs vehicle
Procedure: (§1) Animals were acclimated to the vivarium for at least 48 hr prior to behavioral testing. Inflammation was induced for both rodent species with the administration of an intraplantar (subcutaneous injection into the plantar surface of the hind paw, i.pl.) injection of 0.10 ml Freund's Complete Adjuvant (FCA).
For rat studies, the experiments were conducted 24 hours after CFA administration. Rats are tested for mechanical allodynia in a Randall-Selitto apparatus. The inflamed paw is put on a pedestal and a pointed force of increasing intensity (0 to 250 grams) is applied to the paw. When the animal struggles to withdraw from the force the test is stopped and the force to induce that struggle is recorded. Data may be presented as mean grams of force to withdrawal or a percentage of the maximum possible effect.

[5] = target: T1, delta-opioid receptor (Accession NP_000902) (Homo sapiens, UniProt P41143); test: cAMP assay (receptor G-protein mediated response, HTRF); type: cell-based
T1 sequence (P41143 whole entry): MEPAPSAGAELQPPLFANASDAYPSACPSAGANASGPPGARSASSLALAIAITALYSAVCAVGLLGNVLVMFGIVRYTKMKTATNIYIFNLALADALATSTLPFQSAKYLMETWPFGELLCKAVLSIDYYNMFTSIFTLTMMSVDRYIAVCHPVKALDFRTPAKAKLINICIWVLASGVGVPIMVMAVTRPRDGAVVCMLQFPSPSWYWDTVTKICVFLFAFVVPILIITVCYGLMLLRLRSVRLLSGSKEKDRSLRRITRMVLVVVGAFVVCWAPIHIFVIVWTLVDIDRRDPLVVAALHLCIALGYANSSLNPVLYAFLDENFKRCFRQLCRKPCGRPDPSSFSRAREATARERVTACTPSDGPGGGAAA
Procedure: (§2) Plasmids encoding delta-opioid receptor (Accession NP_000902), mu-opioid receptor (Accession NP_000905) and kappa-opioid receptor (Accession Assession NP_000903) were generated in the pCMV-Prolink backbone and transfected into an EA-arrestin parental human embryonic kidney (HEK-293) cell line from DiscoveRx Corporation. Clonal stable lines were subsequently selected under G418.
Cell lines were grown adherently in Minimum Essential Media (Cellgro cat #10-010-CM) containing 10% fetal bovine serum (Hyclone cat #SH30071.03), 4 mM glutamine (Cellgro cat #25-005-CI), 150 ug/ml hygromycin B (Cellgro cat #30-240-CR), 150 ug/ml G418 (Cellgro cat #30-234-CR), and 50 u/50 ug penicillin/streptomycin (Lonza cat #17-603E). […]
Receptor G-protein mediated responses were determined by measuring changes in intracellular cAMP using CisBio HTRF cAMP HiRange kit (cat #62AM6PEJ) based on time-resolved fluorescence resonance energy transfer (TR-FRET). […] Following a 30 minute incubation at 37° C. the components of the cAMP HiRange kit were added as directed and the plates were read after 1 hour on a BMG PheraStar plate reader. Responses were measured as the ratio of fluorescence at 665 nm/620 nm per manufacturer's instructions.

[6] = target: T1, delta-opioid receptor (Accession NP_000902); test: β-arrestin recruitment assay (DiscoveRx PathHunter); type: cell-based; conditions: HEK-293 cells
Procedure: as §2
Cell lines were grown adherently in Minimum Essential Media (Cellgro cat #10-010-CM) containing 10% fetal bovine serum (Hyclone cat #SH30071.03), 4 mM glutamine (Cellgro cat #25-005-CI), 150 ug/ml hygromycin B (Cellgro cat #30-240-CR), 150 ug/ml G418 (Cellgro cat #30-234-CR), and 50 u/50 ug penicillin/streptomycin (Lonza cat #17-603E). Prior to the assay cells were removed from the flasks with CellStripper (Cellgro cat #25-056-CI), repeatedly pipetted to disperse cells, and spun at low speed for 5 min at room temperature. Cells were then resuspended at 250,000 cells/ml in growth media and plated at 5,000 cells/well in 384 well plates (Greiner part #784080). […]
Receptor mediated beta-arrestin recruitment was determined using the DiscoveRx β-arrestin PathHunter Detection kit (cat #93-0001). […] Following a 60 minute incubation at 37° C. the components of the DiscoveRx β-arrestin PathHunter Detection kit were added as directed and the plates were read after 1 hour on a BMG PheraStar plate reader.

[7] = test system: mouse; test: Tactile allodynia produced by intraplantar Freund's Complete Adjuvant, von Frey (mouse); type: in vivo; conditions: route sc, p < 0.05 vs vehicle
Procedure: as §1
For mouse studies, the experiments were conducted 48 hours after FCA administration. Tactile allodynia was measured using a series of von Frey monofilaments. These filaments are bendable, plastic and intended to poke, not penetrate, the skin. Animals were placed in a Plexiglas chamber (approximately 10 cm×20 cm×25 cm) and allowed to habituate for 5-10 minutes. The chamber was positioned on top of a mesh screen so that von Frey monofilaments can be presented to the plantar surface of the hind paw that is inflamed. The measurement of tactile sensitivity for the injected hind paw is obtained using the up/down method (LaBuda and Little, 2005, J Neurosci. Methods, 144, 175) with […]. Each trial will start with a von Frey force of 0.6 grams delivered to the hind paw for approximately 1-2 seconds. If there was no withdrawal response, the next higher force was be delivered. If there was a response, the next lower force was delivered. This procedure was performed until no response was made at the highest force (2 grams) or until four stimuli are administered following the initial response. The 50% paw withdrawal threshold for the hind paw was be calculated using the following formula: [Xth]log=[vFi]log+ky where [vFr] is the force of the last von Frey used, k is the average interval (in log units) between the von Frey monofilaments, and y is a value that depends upon the pattern of withdrawal responses (Dixon, Annual Review Pharmacol Toxicol, 1980, 20, 441).

| SMILES | Active Migraine Doses [1] [mg/kg] | minimal effective dose [2] [mg/kg] | minimal effective dose ([3]; po) [mg/kg] | further results |
| --- | --- | --- | --- | --- |
| CC1C(COc2ccc3c(c2)C(=O)NC3)C(c2ccc3c(c2)OCCC3)CCN1CCn1cccc1 (single isomer, unassigned; (-)) [Compound B1365, (−)-6-{[trans, trans-4-(3,4-dihydro-2H-1-benzopyran-7-yl)-2-methyl-1-[2-(1H-pyrrol-1-yl)ethyl]piperidin-3-yl]methoxy}-2,3-dihydro-1H-isoindol-1-one] | ≤10 |  |  | Active Migraine Doses [2]: ≤10 mg/kg; Active TST Dose [3]: ≤10 mg/kg |
| C[C@@H]1[C@@H](COc2ccc3c(c2)C(=O)NC3)[C@H](c2ccc(F)cc2)CCN1CC1CC1 [Compound B0720] |  | ≤ 10 | ≤ 10 | Active CFA Dose [4]: ≤30 mg/kg |
| Fc1ccc([C@@H]2CCNC[C@H]2COc2ccc3c(c2)OCO3)cc1 [Paroxetine] |  |  |  | hDOR G Span ([5]; G-protein mediated cAMP response, HEK-293 cells): <100; selectivity for the delta-opioid receptor ([5]; also tested at mu and kappa-opioid receptor): non-selectivity; hDOR B Span [6]: <100; EC50 ([6]; read-out: hDOR B pEC50 (converted)): > 1000 nM |
| COc1cc(F)cc([C@@H]2CCN(CCn3cccc3)[C@H](C)[C@H]2COc2ccc3c(c2)C(=O)NC3)c1 (racemic) [Compound B1401, (−)-6-{[trans, trans-4-(3-fluoro-5-methoxyphenyl)-2-methyl-1-[2-(1H-pyrrol-1-yl)ethyl]piperidin-3-yl]methoxy}-2,3-dihydro-1H-isoindol-1-one] | ≤10 | ≤ 10 |  | minimal effective dose [3]: ≤ 10 mg/kg |
| COCCOc1ccc([C@@H]2CCN(CCc3ccccc3)[C@H](C)[C@H]2COc2ccc3c(c2)C(=O)NC3)cc1F [Compound B1194, (−)-6-{[trans, trans-4-[3-fluoro-4-(2-methoxyethoxy)phenyl]-2-methyl-1-(2-phenylethy)piperidin-3-yl]methoxy}-2,3-dihydro-1H-isoindol-1-one] |  | ≤ 10 |  | minimal effective dose [3]: ≤ 10 mg/kg |
| COCCOc1ccc([C@@H]2CCN(CCc3ccccc3F)[C@H](C)[C@H]2COc2ccc3c(c2)C(=O)NC3)cc1 [Compound B1079] |  |  | ≤ 30 |  |
| COc1cc(F)cc(C2CCN(CCn3cccc3)C(C)C2COc2ccc3c(c2)C(=O)NC3)c1 (mixture of isomers) [Compound B1274, (+/−)-6-{[(trans, trans)-4-(3-fluoro-5-methoxyphenyl)-2-methyl-1-[2-(1H-pyrrol-1-yl)ethyl]piperidin-3-yl]methoxy}-2,3-dihydro-1H-isoindol-1-one] |  |  |  | Active TST Dose [3]: ≤10 mg/kg |
| C[C@@H]1[C@@H](COc2ccc3c(c2)C(=O)NC3)[C@H](c2ccccc2)CCN1CCC=C(F)F [Compound B1211] |  | ≤ 10 |  | minimal effective dose [3]: ≤ 10 mg/kg |
| COCCOc1ccc([C@@H]2CCN(CCn3cccc3)[C@H](C)[C@H]2COc2ccc3c(c2)C(=O)NC3)cc1F [Compound B1205, (−)-6-{[trans, trans-4-[3-fluoro-4-(2-methoxyethoxy)phenyl]-2-methyl-1-[2-(1H-pyrrol-1-yl)ethyl]piperidin-3-yl]methoxy}-2,3-dihydro-1H-isoindol-1-one] | ≤10 | ≤ 10 | ≤ 30 |  |
| COc1ccc([C@@H]2CCN(CCC=C(F)F)[C@H](C)[C@H]2COc2ccc3c(c2)C(=O)NC3)cc1 [Compound B1145, (−)-6-{[trans, trans-1-(4,4-difluorobut-3-en-1-yl)-4-(4-methoxyphenyl)-2-methylpiperidin-3-yl]methoxy}-2,3-dihydro-1H-isoindol-1-one] |  | ≤ 10 | ≤ 10 | Active CFA Dose [7]: ≤10 mg/kg |
| COc1ccc([C@@H]2CCN(CCn3cccc3)[C@H](C)[C@H]2COc2ccc3c(c2)C(=O)NC3)cc1 [Compound B0876, (−)-6-{[trans, trans-4-(4-methoxyphenyl)-2-methyl-1-[2-(1H-pyrrol-1-yl)ethyl]piperidin-3-yl]methoxy}-2,3-dihydro-1H-isoindol-1-one] | ≤10 | ≤ 10 | ≤ 30 |  |
